From PubChem BioAssay (NCI)
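Values below derive from 48-hour exposures of cells grown in 96-well plates, with endpoints linearly interpolated between the two concentrations bracketing the appropriate inhibition level. Abbreviation: GI50, concentration required for 50% inhibition of growth. The concentration for full growth arrest is given as TGI.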

Assays:
Experiment in all cases: NCI anticancer screen, dose series, 48 h
[1] = test system: K-562 leukemia
[2] = test system: HL-60(TB) leukemia
[3] = test system: SF-268 CNS
[4] = test system: IGROV1 ovarian
[5] = test system: OVCAR-8 ovarian
[6] = test system: SK-MEL-28 melanoma
[7] = test system: NCI/ADR-RES ovarian
[8] = test system: OVCAR-4 ovarian
[9] = test system: SF-539 CNS
[10] = test system: SK-MEL-2 melanoma
[11] = test system: SN12C renal
[12] = test system: NCI-H522 lung
[13] = test system: 786-0 renal
[14] = test system: A549 NSCLC
[15] = test system: COLO 205 colon
[16] = test system: SNB-19 CNS
[17] = test system: A498 renal
[18] = test system: ACHN renal
[19] = test system: HCC-2998 colon
[20] = test system: SR leukemia
[21] = test system: UACC-62 melanoma
[22] = test system: PC-3 prostate
[23] = test system: NCI-H226 lung
[24] = test system: OVCAR-3 ovarian
[25] = test system: SF-295 CNS
[26] = test system: MCF7 breast
[27] = test system: SK-OV-3 ovarian
[28] = test system: UO-31 renal
[29] = test system: MALME-3M melanoma
[30] = test system: CAKI-1 renal
[31] = test system: BT-549 breast
[32] = test system: SK-MEL-5 melanoma
[33] = test system: EKVX NSCLC
[34] = test system: MDA-MB-468 breast
[35] = test system: HOP-62 NSCLC
[36] = test system: SW-620 colon
[37] = test system: U251 CNS
[38] = test system: HCT-116 colon
[39] = test system: MDA-MB-231 breast
[40] = test system: DU-145 prostate
[41] = test system: HCT-15 colon
[42] = test system: MOLT-4 leukemia
[43] = test system: M14 melanoma
[44] = test system: MDA-MB-435
[45] = test system: CCRF-CEM leukemia
[46] = test system: KM12 colon
[47] = test system: NCI-H23 lung
[48] = test system: HS 578T breast
[49] = test system: RPMI-8226 leukemia
[50] = test system: OVCAR-5 ovarian
[51] = test system: RXF 393 renal
[52] = test system: T-47D breast
[53] = test system: TK-10 renal
[54] = test system: UACC-257 melanoma
[55] = test system: LOX IMVI melanoma
[56] = test system: HT29 colon
[57] = test system: NCI-H460 lung
[58] = test system: HOP-92 NSCLC
[59] = test system: SNB-75 CNS

COc1ccc(N=Nc2c(N)nn3c(-c4cc5cc(Br)ccc5oc4=O)ccnc23)cc1
GI50 [1]: 11.1 µM | TGI [1]: > 100 µM | GI50 [2]: > 100 µM | TGI [2]: > 100 µM | GI50 [3]: 3.72 µM | TGI [3]: 20 µM | GI50 [4]: 6.28 µM | TGI [4]: 22.8 µM | GI50 [5]: 2.93 µM | TGI [5]: 11.1 µM | GI50 [6]: 4.78 µM | TGI [6]: 19 µM | GI50 [7]: 3.42 µM | TGI [7]: 13.1 µM | GI50 [8]: 3.69 µM | TGI [8]: 19.3 µM | GI50 [9]: 2.54 µM | TGI [9]: 6.26 µM | GI50 [10]: 4.01 µM | TGI [10]: 18.2 µM | GI50 [11]: 3.21 µM | TGI [11]: 14.1 µM | GI50 [12]: 2.07 µM | TGI [12]: 6.43 µM | GI50 [13]: 2.36 µM | TGI [13]: 5.9 µM | GI50 [14]: 3.7 µM | TGI [14]: 16.9 µM | GI50 [15]: 6.15 µM | TGI [15]: 52.3 µM | GI50 [16]: 4.05 µM | TGI [16]: 16.3 µM | GI50 [17]: 2.64 µM | TGI [17]: 9.09 µM | GI50 [18]: 2.52 µM | TGI [18]: 7.17 µM | GI50 [19]: 4.63 µM | TGI [19]: 23.6 µM | GI50 [20]: 99.7 µM | TGI [20]: > 100 µM | GI50 [21]: 2.98 µM | TGI [21]: 12.1 µM | GI50 [22]: 4.56 µM | TGI [22]: 71.5 µM | GI50 [23]: 3.72 µM | TGI [23]: 14.5 µM | GI50 [24]: 3.85 µM | TGI [24]: > 100 µM | GI50 [25]: 2.7 µM | TGI [25]: 8.53 µM | GI50 [26]: 3.5 µM | TGI [26]: 16.4 µM | GI50 [27]: 3.67 µM | TGI [27]: 10.7 µM | GI50 [28]: 3.33 µM | TGI [28]: 15.4 µM | GI50 [29]: 3 µM | TGI [29]: 11.6 µM | GI50 [30]: 3.47 µM | TGI [30]: 15.5 µM | GI50 [31]: 4.38 µM | TGI [31]: 14.8 µM | GI50 [32]: 3.56 µM | TGI [32]: 13.6 µM | GI50 [33]: 9.79 µM | TGI [33]: 35.5 µM | GI50 [34]: 1.86 µM | TGI [34]: 6.2 µM | GI50 [35]: 2.09 µM | TGI [35]: 5.21 µM | GI50 [36]: 5.86 µM | TGI [36]: 59.6 µM | GI50 [37]: 1.89 µM | TGI [37]: 4.24 µM | GI50 [38]: 3.69 µM | TGI [38]: 12.4 µM | GI50 [39]: 2.9 µM | TGI [39]: 10.1 µM | GI50 [40]: 5.43 µM | TGI [40]: > 100 µM | GI50 [41]: 4.63 µM | TGI [41]: 79.8 µM | GI50 [42]: > 100 µM | TGI [42]: > 100 µM | GI50 [43]: 12.5 µM | TGI [43]: > 100 µM | GI50 [44]: 7.87 µM | TGI [44]: > 100 µM | GI50 [45]: > 100 µM | TGI [45]: > 100 µM | GI50 [46]: 4.17 µM | TGI [46]: > 100 µM | GI50 [47]: 2.98 µM | TGI [47]: 10.1 µM | GI50 [48]: 3.08 µM | TGI [48]: > 100 µM | GI50 [49]: 10.9 µM | TGI [49]: > 100 µM | GI50 [50]: 4.86 µM | TGI [50]: 33.8 µM | GI50 [51]: 2.34 µM | TGI [51]: 7 µM | GI50 [52]: 3.12 µM | TGI [52]: 13.5 µM | GI50 [53]: 7.89 µM | TGI [53]: 24.8 µM | GI50 [54]: 7.3 µM | TGI [54]: 32 µM | GI50 [55]: 4.72 µM | TGI [55]: 16.4 µM | GI50 [56]: 3.51 µM | TGI [56]: > 100 µM | GI50 [57]: 2.96 µM | TGI [57]: 11.1 µM | GI50 [58]: 2.48 µM | TGI [58]: 7.25 µM | GI50 [59]: 1.73 µM | TGI [59]: 5.34 µM

O=c1[nH]c2ccc(Cl)cc2cc1CSc1ccc(Nc2nccc(-c3ccc(Cl)cc3)n2)cc1
GI50 [1]: 15.8 µM | TGI [1]: > 100 µM | GI50 [2]: 42.9 µM | TGI [2]: > 100 µM | GI50 [3]: 15.3 µM | TGI [3]: 40.1 µM | GI50 [4]: 22.7 µM | TGI [4]: 52.5 µM | GI50 [5]: 23.4 µM | TGI [5]: 72.6 µM | GI50 [6]: 22.6 µM | TGI [6]: 72.3 µM | GI50 [7]: 14.8 µM | TGI [7]: 42 µM | GI50 [8]: 16.9 µM | TGI [8]: 51 µM | GI50 [9]: 15.1 µM | TGI [9]: 31.1 µM | GI50 [10]: 20 µM | TGI [10]: 43 µM | GI50 [11]: > 100 µM | TGI [11]: > 100 µM | GI50 [12]: 20.1 µM | TGI [12]: 51.7 µM | GI50 [13]: 17.4 µM | TGI [13]: 34.3 µM | GI50 [14]: 16.9 µM | TGI [14]: 41.2 µM | GI50 [15]: 40.5 µM | TGI [15]: > 100 µM | GI50 [16]: 15.8 µM | TGI [16]: 31.5 µM | GI50 [17]: 20 µM | TGI [17]: 43.7 µM | GI50 [18]: 22 µM | TGI [18]: 56.1 µM | GI50 [19]: 25.3 µM | TGI [19]: > 100 µM | GI50 [20]: 69.5 µM | TGI [20]: > 100 µM | GI50 [21]: 19.6 µM | TGI [21]: 45.4 µM | GI50 [22]: 9.22 µM | TGI [22]: 27.8 µM | GI50 [23]: 16.5 µM | TGI [23]: 45.1 µM | GI50 [24]: 19.1 µM | TGI [24]: 37.1 µM | GI50 [25]: 17.6 µM | TGI [25]: 36.9 µM | GI50 [26]: 5.65 µM | TGI [26]: 28.5 µM | GI50 [27]: 18.7 µM | TGI [27]: 39 µM | GI50 [28]: 29 µM | TGI [28]: > 100 µM | GI50 [29]: 19.1 µM | TGI [29]: 50.1 µM | GI50 [30]: 15.6 µM | TGI [30]: 38.4 µM | GI50 [31]: 15.5 µM | TGI [31]: 31.8 µM | GI50 [32]: 25.5 µM | TGI [32]: 99.2 µM | GI50 [33]: 28.1 µM | TGI [33]: > 100 µM | GI50 [34]: 10.6 µM | TGI [34]: 25.3 µM | GI50 [35]: 16.5 µM | TGI [35]: 31.7 µM | GI50 [36]: 4.42 µM | TGI [36]: 20 µM | GI50 [37]: 16.5 µM | TGI [37]: 36.1 µM | GI50 [38]: 10.6 µM | TGI [38]: 26.7 µM | GI50 [39]: 12.4 µM | TGI [39]: 28 µM | GI50 [40]: 15.1 µM | TGI [40]: 61.7 µM | GI50 [41]: 6.64 µM | TGI [41]: 24.5 µM | GI50 [42]: 13.5 µM | TGI [42]: > 100 µM | GI50 [43]: 19.1 µM | TGI [43]: 50.5 µM | GI50 [44]: 15.3 µM | TGI [44]: 40.9 µM | GI50 [45]: 13.4 µM | TGI [45]: > 100 µM | GI50 [46]: 30.5 µM | TGI [46]: > 100 µM | GI50 [47]: 15.3 µM | TGI [47]: 30 µM | GI50 [48]: 17.3 µM | TGI [48]: 52 µM | GI50 [49]: 86.6 µM | TGI [49]: > 100 µM | GI50 [50]: 57.8 µM | TGI [50]: > 100 µM | GI50 [51]: 12 µM | TGI [51]: 26.4 µM | GI50 [52]: 29.6 µM | TGI [52]: > 100 µM | GI50 [53]: 18.6 µM | TGI [53]: 36.2 µM | GI50 [54]: > 100 µM | TGI [54]: > 100 µM | GI50 [55]: 20.6 µM | TGI [55]: 60.9 µM | GI50 [56]: 13.8 µM | TGI [56]: > 100 µM | GI50 [57]: 6.2 µM | TGI [57]: 25.5 µM | GI50 [58]: 15.9 µM | TGI [58]: 38.3 µM | GI50 [59]: 11.4 µM | TGI [59]: 29.7 µM
